Measured values from article PMC9356275, “A quantitative high-throughput screen identifies compounds that lower expression of the SCA2-and ALS-associated gene ATXN2” (The Journal of Biological Chemistry, 2022).

How the values were obtained:
ATXN2-luc [1] = test: Secondary assays: ATXN2-luc in S2 and H2 cells, 12 doses, Bright-Glo; type: cell-based, human; settings: summary data; for IC50: ATXN2-luc luciferase assays in H2 and S2 cells, 12 doses plus a zero dose, read-out: Mean IC50; for min ATXN2-luc (%): minimum ATXN2-luc signal over 12 doses, H2 and S2 cells
Experimental: (§1) The values for H2 and S2 were used as replicates to calculate IC50s and to assess cell viability.
(§2) Compounds were plated at 2× concentrations in phenol red–free DMEM in 25 μl in 384-well plates with each compound dose plated in triplicate. An equal volume of S2, H2, or SC cells (24,000 cells/well) suspended in phenol red–free DMEM with 10% fetal bovine serum and 1× penicillin/streptomycin were added. Cells were grown 24 h and then assayed first by using the CellTiter-Fluor reagent (20 μl) followed by the addition of Bright-Glo (65 μl) luciferase assay, using a multimode plate reader (Beckman; DT880). Values were reported as the mean ± SD with n = 3. IC50s were determined by the Hill coefficient method using an online tool (https://www.aatbio.com/tools/ic50-calculator).

CMV-luc = test: Secondary assays: CMV-luc in SC cells, Bright-Glo; type: cell-based, human; settings: minimum CMV-luc signal in SC cells over 12 doses; summary data
Experimental: as §2

S2, H2 or SC cells = test: Secondary assays: multiplexed cell viability (CellTiter-Fluor)
Experimental: as §1, §2

[2] = as above; settings: human
Experimental: as §1, §2

ATXN2-luc [3] = test: MSSR pilot screen: ATXN2-luc luciferase assay (Bright-Glo) in H2 cells, single 10 μM dose; type: cell-based, human; settings: for SD from mean (ATXN2-luc, Z-score): H2 cells, single dose (title: 10 μM compound), overnight; for ¦Score/1SD¦: absolute score divided by 1SD (0.891 or 0.9)
ATXN2-luc [4] = test: MSSR hit retest / multiconcentration testing: ATXN2-luc luciferase assay in H2 cells (1 and 10 μM); type: cell-based, human; settings: for H2&S1 ave luc 1uM: 1 uM compound; for H2&S1 ave luc 10uM: 10 uM compound
ATXN2-luc [5] = test: MSSR hit retest: ATXN2-luc luciferase assay, average of H2 and S1 cells (1 and 10 uM); type: cell-based, human; set-up: H2&S1 ave luc 1uM / H2&S1 ave luc 10uM: scale not given here; settings: average of H2 and S1 cells; for H2&S1 ave luc 10uM: head line r4 20 uM compound
Source text: (§3) Supplement mmc2.xlsx, sheet "43 annotated compounds"

H2 and S1 cells = test: Paired MTT viability assay, average of H2 and S1 cells (1 and 10 uM); type: cell-based, human; set-up: H2&S1 ave MTT 1uM / H2&S1 ave MTT 10uM: unit not given here
Source text: as §3

[6] = minimum viability, multiplexed CellTiter-Fluor, over 12 doses, summary data
[7] = pilot screen at 10 µM compound, H2 cells expressing ATXN2-luc
[8] = luciferase, average of H2 and S1 cells expressing ATXN2-luc, rescreen
[9] = luciferase assay, average of H2 and S1 cells (both ATXN2-luc), rescreen from plated libraries

Row | Compound | IC50 (ATXN2-luc [1]) [µM] | min ATXN2-luc (%) (ATXN2-luc [1]) | min SC luc (%) (CMV-luc) | min viability (%) (S2, H2 or SC cells; [6]) | min viability (%) (S2, H2 or SC cells) | other results
1 | Cc1cnc(NC(=O)CN2CCN(c3ccccn3)CC2)s1 [MLS000035284-02] | 12.9 | 38.5658 | 4.094 | 76.8459 |  | 
2 | Clc1ccc(C[n+]2cc(-c3ccccc3)n3c2CCCCC3)c(Cl)c1.[Br-] [MLS000420216-02] | 8.08 | 56.4685 | 72.1585 | 84.5162 |  | 
3 | S=C(NCCCN1CCOCC1)N1CCN(c2nc(-c3ccccc3)cs2)CC1 [MLS000706289-02] | 6.85 | 61.6491 | 79.3012 | 89.1129 |  | 
4 | C[C@@H]1CCC/C=C\[C@H]2C[C@H](O)C[C@@H]2[C@H](O)/C=C\C(=O)O1 [NCGC00017254-02, (+)-Brefeldin A] | 2.89 | 44.7226 | 84.381 | 72.9816 |  | 
5 | CCC(=C/[C@H](C)C/C=C/C(C)=C/[C@@H](C)C(=O)[C@@H](C)[C@H](O)[C@@H](C)C/C(C)=C/C(=O)O)/C=C/[C@@H]1OC(=O)C=C[C@@H]1C [NCGC00162440-02] | 0.048 | 28.333 | 90.0621 | 65.4242 |  | 
6 | Cc1ccc2nc(NCCN)c3ncc(C)n3c2c1 [NCGC00165761-02] | 4.05 | 20.5589 | 96.0167 |  | 77.5673 | 
7 | NC(=O)Nc1cc(-c2cccc(F)c2)sc1C(=O)N[C@H]1CCCNC1 [NCGC00242481-02, AZD7762] |  |  |  |  |  | viability at 24 h [2]: 78.1%
8 | CN(c1ncccc1CNc1nc(Nc2ccc3c(c2)CC(=O)N3)ncc1C(F)(F)F)S(C)(=O)=O [NCGC00242495-01, PF-00562271] | 2.32 | 15.5052 | 98.3015 | 64.5946 |  | 
9 | COc1c(C)cnc(Cn2cnc3c(Cl)nc(N)nc32)c1C [NCGC00247877-01] | 0.329 | 17.8512 | 68.1668 |  | 91.8481 | 
10 | CCNC(=O)c1noc(-c2cc(C(C)C)c(O)cc2O)c1-c1ccc(CN2CCOCC2)cc1 [NCGC00247878-01] | 0.044 | 17.8831 | 63.2542 | 94.6315 |  | 
11 | CCNC(=O)c1cc2c(-c3cc(OCCN4CCCC4)c(Cl)cc3Cl)nc(N)nc2s1 [NCGC00247879-01, NVP-BEP800] | 1.79 | 22.6428 | 85.4541 |  | 89.936 | 
12 | Cc1cccc(Nc2nc(N[C@@H]3CCCC[C@H]3N)ncc2C(N)=O)c1 [NCGC00253909-01] | 25.4 | 64.2535 | 86.8204 |  | 94.6197 | 
13 | Cc1ccc(-c2ncn(-c3ccc(Nc4nccc(-c5cccc(N6CCOCC6)c5)n4)cc3)n2)cn1 [NCGC00263146-01] | 1.3 | 15.6493 | 82.9006 |  | 65.3662 | 
14 | O=C(O)c1ccc2c(c1)nc(Nc1cccc(Cl)c1)c1ccncc12 [NCGC00263192-02] | 10.2 | 45.6416 | 93.7801 |  | 77.6315 | 
15 | C[C@@]12OC(=O)[C@]1([C@@H](O)[C@@H]1C=CCCC1)NC(=O)[C@H]2CCCl [NCGC00344630-01] | 1.11 | 16.5036 | 96.8804 | 75.9573 |  | 
16 | CN[C@@H]1CN(c2ccc3c(=O)c(C(=O)O)cn(-c4nccs4)c3n2)C[C@@H]1OC [NCGC00346437-01] | 0.488 | 15.1045 | 64.0102 | 71.6056 |  | 

Row | Compound | IC50 (ATXN2-luc [1]) [µM] | min ATXN2-luc (%) (ATXN2-luc [1]) | min SC luc (%) (CMV-luc) | min viability (%) (S2, H2 or SC cells; [6]) | min viability (%) (S2, H2 or SC cells) | other results
17 | C=CCNc1c(O)cc2c(O)c1C[C@@H](C)C[C@H](OC)[C@@H](O)[C@@H](C)C=C(C)[C@H](OC(N)=O)[C@@H](OC)C=CC=C(C)C(=O)N2 [NCGC00346438-01] | 0.546 | 24.2069 | 94.9947 |  | 91.4914 | 
18 | C[C@@H](Oc1ccc2[nH]nc(C=Cc3cnn(CCO)c3)c2c1)c1c(Cl)cncc1Cl [NCGC00346459-01] | 1.39 | 15.2562 | 64.272 | 66.1226 |  | 
19 | Nc1ncnc2c1c(-c1cnc3[nH]ccc3c1)nn2C1CCCC1 [NCGC00346619-01, PP121] | 4.16 | 27.4759 | 78.0969 | 50.3878 |  | 
20 | O=c1[nH]c2ccc(Cl)cc2c(N[C@@H]2CN3CCC2CC3)c1-c1nc2ccccc2[nH]1 [NCGC00346626-01, CHIR-124] | 0.219 | 17.9767 | 69.3978 | 75.0552 |  | 
21 | CC1(C)CC(=O)c2c(C(F)(F)F)nn(-c3ccc(C(N)=O)c(N[C@H]4CC[C@H](O)CC4)c3)c2C1 [NCGC00346633-01, SNX 2112] |  |  | 82.2819 |  |  | viability at 24 h [2]: 83.3%
22 | CC1(C)CC(=O)c2c(C(F)(F)F)nn(-c3ccc(C(N)=O)c(NC4CCC(OC(=O)CN)CC4)c3)c2C1 (stereo not drawn) [NCGC00346640-01, PF 04929113] | 0.088 | 19.9722 | 69.7843 |  | 87.146 | 
23 | Cn1cc(-c2cnn3c(N)c(Br)c([C@H]4CCCNC4)nc23)cn1 [NCGC00346653-01] | 0.388 | 25.4941 | 91.5137 | 87.0431 |  | 
24 | CC(C)c1cc(-c2n[nH]c(=O)n2-c2ccc3c(ccn3C)c2)c(O)cc1O [NCGC00346678-01] | 0.03 | 17.7351 | 55.4123 | 77.8152 |  | 
25 | CCc1c(O)cc(O)c(C(=O)c2ccc(OCCN3CCOCC3)c(OC)c2)c1CC(=O)N(CCOC)CCOC [NCGC00346685-01, KW-2478] | 0.587 | 23.9372 | 105.888 |  | 97.6731 | 
26 | O=C(Nc1cccc(Nc2ncc(Br)c(NCCc3cnc[nH]3)n2)c1)N1CCCC1 [NCGC00346687-01, BX-912] | 8.89 | 54.9395 | 100.351 |  | 84.397 | 
27 | Oc1ccc(-c2ccc(-c3cc(Nc4cccc(CNC5CC5)c4)n[nH]3)cc2)c(O)c1 [NCGC00346954-01] | 0.545 | 20.2623 | 54.3112 |  | 61.7259 | 
28 | O=c1[nH]c(=O)n([C@H]2C[C@H](O)[C@@H](CO)O2)cc1C(F)(F)F [Trifluridine] |  |  |  |  |  | SD from mean (ATXN2-luc, Z-score) (ATXN2-luc [3]): -5.158 SD; SD from mean (pilot screen) (ATXN2-luc [3]; pilot screen): -5.158 SD; SD from mean (pilot screen) (ATXN2-luc [3]; [7]): -5.158; ¦Score/1SD¦ (ATXN2-luc [3]; pilot screen): 5.79; H2&S1 ave luc 1uM (ATXN2-luc [4]; [8]): 102; activity at 1 µM (ATXN2-luc [5]; Homo sapiens, 1 uM compound, read-out: H2&S1 ave luc 1uM): 102%; activity at 10 µM (ATXN2-luc [5]; Homo sapiens, head line r3 10uM, read-out: H2&S1 ave luc 10uM): 71%; viability at 1 µM (H2 and S1 cells; Homo sapiens, 1 uM compound, read-out: H2&S1 ave MTT 1uM): 80.3%; viability at 10 µM (H2 and S1 cells; Homo sapiens, 10 uM compound, read-out: H2&S1 ave MTT 10uM): 53%
29 | C1CCC(N=C(NC23CC4CC(CC(C4)C2)C3)N2CCOCC2)CC1.Cl [U-37883A] |  |  |  |  |  | SD from mean (ATXN2-luc, Z-score) (ATXN2-luc [3]): -4.965 SD; SD from mean (pilot screen) (ATXN2-luc [3]; pilot screen): -4.965 SD; SD from mean (pilot screen) (ATXN2-luc [3]; [7]): -4.965; ¦Score/1SD¦ (ATXN2-luc [3]; pilot screen): 5.57; H2&S1 ave luc 1uM (ATXN2-luc [4]; [8]): 94; H2&S1 ave luc 10uM (ATXN2-luc [4]; [8]): 17; H2&S1 ave luc 1uM (ATXN2-luc [5]; 1 uM compound): 94; H2&S1 ave luc 10uM (ATXN2-luc [5]; head line r3 10uM): 17; H2&S1 ave MTT 1uM (H2 and S1 cells; 1 uM compound): 105.463; H2&S1 ave MTT 10uM (H2 and S1 cells; 10 uM compound): 56.7572
30 | Cyanocobalamin |  |  |  |  |  | SD from mean (ATXN2-luc, Z-score) (ATXN2-luc [3]): -2.681 SD; SD from mean (pilot screen) (ATXN2-luc [3]; pilot screen): -2.681 SD; SD from mean (pilot screen) (ATXN2-luc [3]; pilot screen, H2 cells expressing ATXN2-luc, single dose printed as 10 μM compound): -2.681; ¦Score/1SD¦ (ATXN2-luc [3]; pilot screen): 3.01; H2&S1 ave luc 1uM (ATXN2-luc [4]; [9]): 110; H2&S1 ave luc 10uM (ATXN2-luc [4]; [9]): 140; H2&S1 ave luc 1uM (ATXN2-luc [5]; 1 uM compound): 110; H2&S1 ave luc 10uM (ATXN2-luc [5]; head line r3 10uM): 140; H2&S1 ave MTT 1uM (H2 and S1 cells; 1 uM compound): 151.543; H2&S1 ave MTT 10uM (H2 and S1 cells; 10 uM compound): 134.855
31 | STROPH[…] LACTONE ACETATE |  |  |  |  |  | SD from mean (ATXN2-luc, Z-score) (ATXN2-luc [3]): -3.855 SD; SD from mean (pilot screen) (ATXN2-luc [3]; pilot screen): -3.855 SD; SD from mean (pilot screen) (ATXN2-luc [3]; [7]): -3.855; ¦Score/1SD¦ (ATXN2-luc [3]; pilot screen): 4.28; H2&S1 ave luc 1uM (ATXN2-luc [4]; [8]): 37; H2&S1 ave luc 10uM (ATXN2-luc [4]; [8]): 20; H2&S1 ave luc 1uM (ATXN2-luc [5]; 1 uM compound): 37; H2&S1 ave MTT 1uM (H2 and S1 cells; 1 uM compound): 43.5914; H2&S1 ave MTT 10uM (H2 and S1 cells; 10 uM compound): 36.6277
